Source: BindingDB's records for patent US10011627 (Youngene Therapeutics, 2018)

Legend:
[1] = target: T1, Sodium/glucose cotransporter 2 (Homo sapiens, UniProt P31639); assay: Inhibitory Activity Assay
T1 sequence (P31639 whole entry): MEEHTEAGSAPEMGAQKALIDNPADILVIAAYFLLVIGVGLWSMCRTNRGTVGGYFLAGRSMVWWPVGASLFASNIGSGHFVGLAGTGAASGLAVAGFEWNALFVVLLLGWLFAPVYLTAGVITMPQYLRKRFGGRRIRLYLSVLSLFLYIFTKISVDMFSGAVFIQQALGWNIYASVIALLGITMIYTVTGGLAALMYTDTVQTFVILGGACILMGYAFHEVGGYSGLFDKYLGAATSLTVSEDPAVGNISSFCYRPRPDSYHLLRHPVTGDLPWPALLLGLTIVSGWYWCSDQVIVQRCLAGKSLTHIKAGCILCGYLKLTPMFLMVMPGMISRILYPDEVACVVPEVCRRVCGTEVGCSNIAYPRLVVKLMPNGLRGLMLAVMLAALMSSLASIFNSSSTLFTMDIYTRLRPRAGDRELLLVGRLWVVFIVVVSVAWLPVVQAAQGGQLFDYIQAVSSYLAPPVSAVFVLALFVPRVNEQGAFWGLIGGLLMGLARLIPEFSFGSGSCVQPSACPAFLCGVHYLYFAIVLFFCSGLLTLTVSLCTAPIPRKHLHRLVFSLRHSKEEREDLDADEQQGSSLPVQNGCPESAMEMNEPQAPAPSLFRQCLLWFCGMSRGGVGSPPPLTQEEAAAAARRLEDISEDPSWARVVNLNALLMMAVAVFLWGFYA
Protocol: (§1) The following method was used to determine the inhibitory activity of the compounds of the present invention on SGLT1 and SGLT2. The experimental method is summarized as follows:SGLT1 and SGLT2 transiently transferred HEK293 cells were seeded in a 96-well plate. The density of the cells was 1-1.5×104. The cells were cultured at 37° C. and 5% CO2 for 48 hours, and then washed twice with 200 μL sodium-free buffer. 90 μL sodium-containing buffer of the test compound at different concentrations was added to the well. Each test compound was repeated in three wells for each concentration. The cells were cultured at 37° C. for 15 minutes, then 10 μL (in number 0.1 μCi [14C]) Methyl α-D-glucopyranoside was added to each well of the 96-well plate. The cells were further cultured at 37° C. for 2 hours, then the supernatant was discarded. The cells were washed twice with pre-chilled sodium-free buffer and then dissolved in 100 μL NaOH (200 mM). 100 μL scintillation solution was added, and mixed well. Scintiloscope was used for the quantitative detection of 14C.

[2] = target: T2, Sodium/glucose cotransporter 1 (Homo sapiens, UniProt P13866); assay: Inhibitory Activity Assay
T2 sequence (P13866 whole entry): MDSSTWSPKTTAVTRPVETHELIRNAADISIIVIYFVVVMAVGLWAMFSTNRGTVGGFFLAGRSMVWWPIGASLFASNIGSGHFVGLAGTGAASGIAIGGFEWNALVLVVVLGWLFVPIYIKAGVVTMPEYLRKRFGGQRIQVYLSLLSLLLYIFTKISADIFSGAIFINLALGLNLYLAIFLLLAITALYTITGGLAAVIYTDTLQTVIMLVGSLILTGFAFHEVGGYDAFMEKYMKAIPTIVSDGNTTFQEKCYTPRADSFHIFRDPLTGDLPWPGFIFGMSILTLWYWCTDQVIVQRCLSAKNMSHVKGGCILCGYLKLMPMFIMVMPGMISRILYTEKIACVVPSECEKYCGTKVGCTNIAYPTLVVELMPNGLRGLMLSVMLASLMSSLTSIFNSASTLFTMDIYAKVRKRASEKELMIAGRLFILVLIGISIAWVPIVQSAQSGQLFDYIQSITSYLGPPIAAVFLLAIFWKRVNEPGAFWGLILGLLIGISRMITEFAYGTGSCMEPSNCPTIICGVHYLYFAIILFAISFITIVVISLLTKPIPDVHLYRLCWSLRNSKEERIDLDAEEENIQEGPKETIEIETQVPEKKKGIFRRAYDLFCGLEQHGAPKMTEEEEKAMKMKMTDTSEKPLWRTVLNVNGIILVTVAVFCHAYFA
Protocol: as §1

OC[C@H]1S[C@@H](c2ccc(C3CC3)c(Cc3ccc4c(c3)OCCO4)c2)[C@H](O)[C@@H](O)[C@@H]1O [US10011627, 5]
IC50 [1]: 0.0043 µM
IC50 [2]: 0.301 µM

Cc1cc(O)c([C@@H]2S[C@H](CO)[C@@H](O)[C@H](O)[C@H]2O)cc1Cc1ccc2c(c1)OCCO2 [US10011627, 6]
IC50 [1]: 0.00259 µM
IC50 [2]: 0.0999 µM
